The target in the experiment is human, KCNT1 (Homo sapiens (Human), UniProt Q5JUK3). Kind of experiment: FLIPR Tl/K Flux Assay. The experiment is classed as cell-based. The settings on record: HEK293 cells stably expressing human KCNT1; Tl+ flux stimulated with EC80 of agonist Loxapine. In a few lines:
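HEK293 cells stably expressing human KCNT1 were loaded with FLIPR potassium dye in HEPES/HBSS pH 7.4 with 5 mM probenecid, 1 h at 25 °C, then given test compound for 30 min at 25 °C. Tl+ flux was triggered with chloride-free buffer containing Tl+ and EC80 loxapine and read 160 s. IC50 came from Hill fits of % inhibition.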
human, KCNT1, sequence (Q5JUK3 whole entry): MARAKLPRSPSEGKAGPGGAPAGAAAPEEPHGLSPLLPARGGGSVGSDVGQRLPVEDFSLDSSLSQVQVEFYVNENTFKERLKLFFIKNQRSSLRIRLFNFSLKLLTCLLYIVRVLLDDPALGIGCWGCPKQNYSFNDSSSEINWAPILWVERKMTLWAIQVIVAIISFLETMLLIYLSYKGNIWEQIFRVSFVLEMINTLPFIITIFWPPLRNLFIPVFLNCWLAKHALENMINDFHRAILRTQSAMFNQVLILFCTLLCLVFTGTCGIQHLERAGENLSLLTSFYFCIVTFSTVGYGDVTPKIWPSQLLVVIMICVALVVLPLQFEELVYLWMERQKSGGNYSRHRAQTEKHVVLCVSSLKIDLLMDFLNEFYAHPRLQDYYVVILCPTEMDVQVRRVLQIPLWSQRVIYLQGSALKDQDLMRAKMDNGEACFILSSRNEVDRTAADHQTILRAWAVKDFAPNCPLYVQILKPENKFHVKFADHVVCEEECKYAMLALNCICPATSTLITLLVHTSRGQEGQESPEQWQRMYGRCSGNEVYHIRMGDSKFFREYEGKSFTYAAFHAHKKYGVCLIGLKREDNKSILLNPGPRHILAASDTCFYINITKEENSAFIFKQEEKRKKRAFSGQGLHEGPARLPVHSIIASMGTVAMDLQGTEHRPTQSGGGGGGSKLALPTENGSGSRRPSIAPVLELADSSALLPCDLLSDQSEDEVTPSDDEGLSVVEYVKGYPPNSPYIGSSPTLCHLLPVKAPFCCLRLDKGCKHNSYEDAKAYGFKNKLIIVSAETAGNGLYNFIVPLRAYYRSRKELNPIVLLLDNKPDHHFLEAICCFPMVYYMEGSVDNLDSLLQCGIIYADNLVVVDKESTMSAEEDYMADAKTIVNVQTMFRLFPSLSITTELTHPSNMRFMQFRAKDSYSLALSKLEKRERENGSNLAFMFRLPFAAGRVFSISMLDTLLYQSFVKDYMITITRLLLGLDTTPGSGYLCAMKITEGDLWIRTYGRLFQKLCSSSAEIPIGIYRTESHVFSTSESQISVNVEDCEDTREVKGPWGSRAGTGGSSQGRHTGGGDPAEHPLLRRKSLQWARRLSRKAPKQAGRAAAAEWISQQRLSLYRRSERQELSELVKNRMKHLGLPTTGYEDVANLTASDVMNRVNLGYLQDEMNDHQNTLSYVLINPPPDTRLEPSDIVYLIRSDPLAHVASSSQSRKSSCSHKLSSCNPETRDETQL
One may read the IC50 as the concentration that gives 50% inhibition. In the case of `Cn1nc(C(F)(F)F)cc1C(=O)NC1CCCc2nn(-c3ccc(=O)[nH]c3)cc21` (racemic) [Compound I-33, (rac)-1-Methyl-N-(2-(6-oxo-1,6-dihydropyridin-3-yl)-4,5,6,7-tetrahydro-2H-indazol-4-yl)-3-(trifluoromethyl)-1H-pyrazole-5-carboxamide], the half-inhibitory concentration (IC50) is over 1000 nM. Consider `COc1cc(-c2nc3c(o2)CCC[C@@H]3NC(=O)c2cc(F)cc(C#N)c2)ccn1` [Compound I-275a], for which the IC50 is under 250 nM.

As for `O=C(N[C@H]1CCc2nc(-c3ccnc(C(F)(F)F)c3)ccc21)c1cccc(C(F)(F)F)c1` [Compound I-133a, (S)-3-(Trifluoromethyl)-N-(2-(2-(trifluoromethyl)pyridin-4-yl)-6,7-dihydro-5H-cyclopenta[b]pyridin-5-yl)benzamide], the IC50 was under 250 nM. Next, `N#Cc1ccc(F)c(C(=O)N[C@H]2CCCn3nc(-c4ccnc(C(F)(F)F)c4)cc32)c1` [Compound I-278a, (S)-5-Cyano-2-fluoro-N-(2-(2-(trifluoromethyl)pyridin-4-yl)-4,5,6,7-tetrahydropyrazolo[1,5-a]pyridin-4-yl)benzamide]: under 250 nM; `O=C(N[C@@H]1CCc2nn(-c3ccnc(C(F)(F)F)c3)cc21)c1ccccc1` [Compound I-91b]: over 1000 nM. For the compound `O=C(N[C@@H]1CCCc2nc(-c3cc(C4CC4)ncc3F)oc21)c1cncc(C(F)(F)F)n1` [Compound I-511b], the IC50 was over 1000 nM. Under `Cn1nc(C(F)(F)F)nc1C(=O)N[C@H]1CCCn2nc(-c3ccnc(C4CC4)c3)cc21` [Compound I-499a, (S)-N-(2-(2-Cyclopropylpyridin-4-yl)-4,5,6,7-tetrahydropyrazolo[1,5-a]pyridin-4-yl)-1-methyl-3-(trifluoromethyl)-1H-1,2,4-triazole-5-carboxamide] stands under 250 nM; under `COc1cc(-c2nc3c(o2)CCC[C@@H]3NC(=O)c2cc(C)cc(C(F)(F)F)c2)ccn1` [Compound I-248a], under 250 nM. Next, `COc1cc(-c2nc3c(o2)[C@@H](NC(=O)c2cccc(OC(F)(F)F)c2)CCC3)c(F)cn1` [Compound I-176a, (S)-N-(2-(5-Fluoro-2-methoxypyridin-4-yl)-4,5,6,7-tetrahydrobenzo[d]oxazol-7-yl)-3-(trifluoromethoxy)benzamide]: under 250 nM. `Cc1cc(-c2cc3n(n2)CCC[C@@H]3NC(=O)c2cc(C(F)(F)F)nn2C)cc(C2CC2)n1` [Compound I-315a, (S)-N-(2-(2-Cyclopropyl-6-methylpyridin-4-yl)-4,5,6,7-tetrahydropyrazolo[1,5-a]pyridin-4-yl)-1-methyl-3-(trifluoromethyl)-1H-pyrazole-5-carboxamide] showed a 50% inhibitory concentration (IC50) of under 250 nM. `O=C(N[C@H]1CCc2nn(-c3ccnc(C(F)(F)F)c3)cc21)c1cc(F)cc(F)c1` [Compound I-100a]: the IC50 was under 250 nM. Under `Cn1nc(C(F)(F)F)cc1C(=O)N[C@H]1CCCCn2nc(-c3ccnc(C(F)(F)F)c3)cc21` [Compound I-385a] stands under 250 nM; under `CCc1cc(-c2cc3n(n2)CCC[C@@H]3NC(=O)c2cc(C(F)(F)F)nn2C)ccn1` [Compound I-390a], under 250 nM.

In turn, `O=C(N[C@H]1CCCn2nc(-c3cc(C(F)(F)F)ncc3F)cc21)c1cnc(C(F)(F)F)cn1` [Compound I-202a, (S)-N-(2-(5-Fluoro-2-(trifluoromethyl)pyridin-4-yl)-4,5,6,7-tetrahydropyrazolo[1,5-a]pyridin-4-yl)-5-(trifluoromethyl)pyrazine-2-carboxamide] displayed a half-inhibitory concentration (IC50) of under 250 nM. Under `COCc1cc(C(=O)NC2CCCc3nn(-c4ccnc(C(F)(F)F)c4)cc32)n(C)n1` (racemic) [Compound I-23, (rac)-3-(Methoxymethyl)-1-methyl-N-(2-(2-(trifluoromethyl)pyridin-4-yl)-4,5,6,7-tetrahydro-2H-indazol-4-yl)-1H-pyrazole-5-carboxamide] stands over 1000 nM; under `Cc1c(-n2cc3c(n2)CCC[C@@H]3NC(=O)c2cc(C(F)(F)F)nn2C)ccnc1C(F)(F)F` [Compound I-359a], under 250 nM. `CC(C)Oc1cc(C(=O)N[C@H]2CCn3nc(-c4cc(C(F)(F)F)ncc4F)cc32)ccn1` [Compound I-546a, (S)-N-(2-(5-Fluoro-2-(trifluoromethyl)pyridin-4-yl)-5,6-dihydro-4H-pyrrolo[1,2-b]pyrazol-4-yl)-2-isopropoxyisonicotinamide] registered an IC50 of under 250 nM. Under `O=C(N[C@H]1CCCCc2nn(-c3ccnc(C(F)(F)F)c3)cc21)c1cc(Cl)cc(C(F)(F)F)c1` (single isomer, unassigned) [Compound I-109a] stands under 250 nM; under `CC(C)(C)C(=O)N[C@H]1CCc2nn(-c3ccnc(C(F)(F)F)c3)cc21` [Compound I-104a], 500 to 1000 nM; under `COc1cc(-c2nc3c(o2)[C@@H](NC(=O)c2cncc(C(F)(F)F)n2)CCC3)ccn1` [Compound I-143a, (S)-N-(2-(2-Methoxypyridin-4-yl)-4,5,6,7-tetrahydrobenzo[d]oxazol-7-yl)-6-(trifluoromethyl)pyrazine-2-carboxamide], over 1000 nM. Next, `Cc1nc(C(F)(F)F)oc1C(=O)N[C@H]1CCCn2nc(-c3ccnc(C(F)(F)F)c3)cc21` [Compound I-125a, (S)-4-Methyl-2-(trifluoromethyl)-N-(2-(2-(trifluoromethyl)pyridin-4-yl)-4,5,6,7-tetrahydropyrazolo[1,5-a]pyridin-4-yl)oxazole-5-carboxamide]: under 250 nM. Next, `CCOc1cc(-n2cc3c(n2)CCCC[C@H]3NC(=O)c2cccc(C)c2)ccn1` [Compound I-361b]: over 1000 nM; `Cc1cnc(C(F)(F)F)cc1-c1cc2n(n1)CC[C@@H]2NC(=O)c1cc(C(F)(F)F)nn1C` [Compound I-236a, (S)-1-Methyl-N-(2-(5-methyl-2-(trifluoromethyl)pyridin-4-yl)-5,6-dihydro-4H-pyrrolo[1,2-b]pyrazol-4-yl)-3-(trifluoromethyl)-1H-pyrazole-5-carboxamide]: under 250 nM; `COc1cc(-c2cc3n(n2)CCCC[C@@H]3NC(=O)c2cccc(C#N)c2)ccn1` [Compound I-456a]: under 250 nM. Take `CCOc1cc(-n2cc3c(n2)CCCC3NC(=O)c2cc(Cl)cc(C(F)(F)F)c2)ccn1` (racemic) [Compound I-14, (rac)-3-Chloro-N-(2-(2-ethoxypyridin-4-yl)-4,5,6,7-tetrahydro-2H-indazol-4-yl)-5-(trifluoromethyl)benzamide]: the IC50 was under 250 nM. Next, `CN(C(=O)c1cc(C(F)(F)F)nn1C)[C@H]1CCCc2nn(-c3ccnc(C(F)(F)F)c3)cc21` [Compound I-37a, (S)—N,1-Dimethyl-3-(trifluoromethyl)-N-(2-(2-(trifluoromethyl)pyridin-4-yl)-4,5,6,7-tetrahydro-2H-indazol-4-yl)-1H-pyrazole-5-carboxamide]: over 1000 nM; `N#Cc1cccc(C(=O)N[C@H]2CCCn3nc(-c4ccnc(C5CC5)c4)cc32)c1` [Compound I-449a]: under 250 nM; `Cn1nc(C(F)(F)F)cc1C(=O)N[C@H]1CCc2nn(-c3ccnc(C(F)(F)F)c3)cc21` [Compound I-1a, (S)-1-Methyl-3-(trifluoromethyl)-N-(2-(2-(trifluoromethyl)pyridin-4-yl)-2,4,5,6-tetrahydrocyclopenta[c]pyrazol-4-yl)-1H-pyrazole-5-carboxamide]: under 250 nM.

`CC(F)(F)c1cc(-c2nc3c(o2)CCC[C@@H]3NC(=O)c2cccc(F)c2)ccn1` [Compound I-508a, (S)—N-(2-(2-(1,1-difluoroethyl)pyridin-4-yl)-4,5,6,7-tetrahydrobenzo[d]oxazol-4-yl)-3-fluorobenzamide] returned an IC50 of under 250 nM. `Cn1nc(C(F)(F)F)cc1C(=O)N[C@H]1CCCc2oc(-c3ccnc(C4CC4)c3)nc21` [Compound I-121a, (S)—N-(2-(2-Cyclopropylpyridin-4-yl)-4,5,6,7-tetrahydrobenzo[d]oxazol-4-yl)-1-methyl-3-(trifluoromethyl)-1H-pyrazole-5-carboxamide] came in with an IC50 of under 250 nM. Next, `Cc1nc(C(F)(F)F)sc1C(=O)N[C@H]1CCCn2nc(-c3ccnc(C(F)(F)F)c3)cc21` [Compound I-358a]: under 250 nM; `N#Cc1cc(C(=O)N[C@H]2CCCn3nc(-c4ccnc(C(F)(F)F)c4)cc32)ccn1` [Compound I-328a, (S)-2-Cyano-N-(2-(2-(trifluoromethyl)pyridin-4-yl)-4,5,6,7-tetrahydropyrazolo[1,5-a]pyridin-4-yl)isonicotinamide]: under 250 nM. Under `Cc1cc(C(=O)N[C@H]2CCc3nn(-c4ccnc(C(F)(F)F)c4)cc32)cc(C(F)(F)F)c1` [Compound I-373a] stands under 250 nM; under `Cn1nc(C(F)(F)F)cc1C(=O)NC1CCc2ccc(-c3ccnc(C(F)(F)F)c3)nc21` (stereo not drawn) [Compound I-43], over 1000 nM; under `COc1cc(-c2nc3c(o2)CCC[C@H]3NC(=O)c2cncc(C(F)(F)F)n2)ccn1` [Compound I-471b], 500 to 1000 nM. For the compound `O=C(N[C@H]1CCn2nc(-c3cc(C(F)(F)F)ncc3F)cc21)c1ccnc(OC(F)(F)F)c1` [Compound I-536a, (S)-N-(2-(5-Fluoro-2-(trifluoromethyl)pyridin-4-yl)-5,6-dihydro-4H-pyrrolo[1,2-b]pyrazol-4-yl)-2-(trifluoromethoxy)isonicotinamide], the half-maximal inhibitory concentration (IC50) is under 250 nM. Under `Cn1nc(C(F)(F)F)cc1C(=O)N[C@H]1CCCc2nc(-c3ccnc(C(F)(F)F)c3)sc21` [Compound I-82a] stands under 250 nM; under `CCOc1cc(-c2cc3n(n2)CC[C@@H]3NC(=O)c2cc(C(F)(F)F)nn2C)ccn1` [Compound I-254a, (S)-N-(2-(2-Ethoxypyridin-4-yl)-5,6-dihydro-4H-pyrrolo[1,2-b]pyrazol-4-yl)-1-methyl-3-(trifluoromethyl)-1H-pyrazole-5-carboxamide], under 250 nM. Under `Cn1nc(C(F)(F)F)cc1C(=O)N[C@@H]1CCCc2cnc(-c3ccnc(C(F)(F)F)c3)nc21` [Compound I-452b] stands over 1000 nM.
